Experimental findings from PubChem BioAssay (NCI) are described below.

Among the test systems are HOP-92 NSCLC; SNB-19 CNS; SK-MEL-5 melanoma; HCT-116 colon; HL-60(TB) leukemia; OVCAR-4 ovarian; MCF7 breast; HOP-62 NSCLC; SF-268 CNS; SF-295 CNS.
Assay in all cases: DTP human tumour cell line panel, 48 h

Several values for one entry are separate records, joined by “and”; a condition that tells them apart may be missing. Equal entries are not always repeated.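 Following 48 hours of exposure in 96-well plates, responses at five concentrations were used to interpolate endpoints linearly. GI50 = concentration required for 50% inhibition of growth. The concentration for full growth arrest is given as TGI.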

Turning to `Cc1c2cc[nH]c(=O)c2c(C)c2c1[nH]c1cc(OCCN3CCN(C)CC3)ccc12`, the GI50 in the test on HOP-92 NSCLC was 0.798 µM; in the test with SNB-19 CNS it was 0.946 µM; in the test on SK-MEL-5 melanoma it was 1.18 µM; with HCT-116 colon, 0.339 µM; in the test with HL-60(TB) leukemia it was 1.44 µM; with OVCAR-4 ovarian, 1.17 µM. Further, the GI50 in the test with MCF7 breast was 0.577 µM; in the test with HOP-62 NSCLC, 0.469 µM; with SF-268 CNS, 0.74 µM; with SF-295 CNS, 0.788 µM. In addition, the total growth inhibition concentration (TGI) with HOP-92 NSCLC came out at 5.46 µM; with SNB-19 CNS it was 11.2 µM; in the test with SK-MEL-5 melanoma, 2.44 µM; with HCT-116 colon, 2.09 µM; with HL-60(TB) leukemia it was 4.36 µM; with OVCAR-4 ovarian, 4.82 µM. Besides, the TGI was 6.73 µM with MCF7 breast, 3.24 µM with HOP-62 NSCLC, 7.97 µM in the test with SF-268 CNS and 7.76 µM in the test with SF-295 CNS.

As to `CCSc1nnc2c(-c3ccccc3)n[nH]c2n1`, the TGI in the test on HOP-92 NSCLC, in the test with SNB-19 CNS, in the test with SK-MEL-5 melanoma, in the test with HCT-116 colon, in the test with HL-60(TB) leukemia and with OVCAR-4 ovarian was above 100 µM each time. Moreover, the TGI in the test on MCF7 breast, in the test on HOP-62 NSCLC, with SF-268 CNS and in the test on SF-295 CNS was above 100 µM each time.

In the case of `CC(=O)N1CCN(C2=Nc3ccccc3CO2)C1=S`, the GI50 with HOP-92 NSCLC was 34 µM; in the test on SNB-19 CNS, above 100 µM; with SK-MEL-5 melanoma, 20.4 µM; in the test on HCT-116 colon, 89.8 µM; with HL-60(TB) leukemia, 59.7 µM; in the test with OVCAR-4 ovarian, 65.3 µM. Further, the GI50 with MCF7 breast was 38.2 µM; in the test with HOP-62 NSCLC, above 100 µM; in the test on SF-268 CNS, above 100 µM; with SF-295 CNS, 43.1 µM. Also, the TGI in the test with HOP-92 NSCLC is above 100 µM; in the test on SNB-19 CNS it was above 100 µM; in the test on SK-MEL-5 melanoma, 48.4 µM; in the test with HCT-116 colon, above 100 µM; in the test on HL-60(TB) leukemia it was above 100 µM; in the test with OVCAR-4 ovarian, above 100 µM. Further, the concentration for total growth inhibition (TGI) with MCF7 breast, in the test on HOP-62 NSCLC, in the test with SF-268 CNS and with SF-295 CNS was above 100 µM throughout.

`CC(C)[C@](O)(c1ccc2cc(OC(F)F)c(OC(F)F)cc2c1)c1cn[nH]n1`: the GI50 in the test on HOP-92 NSCLC was 13.6 µM and 13.5 µM; in the test on SNB-19 CNS, 22 µM and 15.7 µM; with SK-MEL-5 melanoma, 17.1 µM and 16.9 µM; in the test with HCT-116 colon, 15.2 µM and 15 µM; in the test with HL-60(TB) leukemia it was 26.8 µM and 25 µM; with OVCAR-4 ovarian, 21.9 µM and 15 µM. Also, the GI50 is 17.2 µM and 15.6 µM in the test on HOP-62 NSCLC; 18.7 µM and 14.4 µM with SF-268 CNS; 15.8 µM and 14 µM in the test on SF-295 CNS. Also, the TGI in the test with HOP-92 NSCLC was 32.2 µM and 29.3 µM; in the test with SNB-19 CNS it was 51 µM and 41.8 µM; in the test on SK-MEL-5 melanoma, 30.9 µM and 30.7 µM; in the test with HCT-116 colon it was 31.3 µM and 30.2 µM; in the test with HL-60(TB) leukemia, 68.5 µM and 75.7 µM; in the test on OVCAR-4 ovarian it was > 100 µM and 54.4 µM. In addition, the TGI in the test on MCF7 breast was 22.4 µM and 35.9 µM; in the test on HOP-62 NSCLC it was 36.9 µM and 31.5 µM; with SF-268 CNS, 50.3 µM and 34.6 µM; in the test with SF-295 CNS, 33.4 µM and 29 µM.

Consider `COc1ccc2c(c1)C(=O)c1c-2n(CCCN)c(=O)c2ccccc12`, for which the GI50 with HOP-92 NSCLC is 0.181 µM; with SNB-19 CNS, below 0.0198 µM; with SK-MEL-5 melanoma, 0.0586 µM; with HCT-116 colon, below 0.0115 µM; in the test with HL-60(TB) leukemia, below 0.01 µM; in the test on OVCAR-4 ovarian, 0.133 µM. Besides, the GI50 in the test on MCF7 breast was below 0.01 µM; in the test with HOP-62 NSCLC, below 0.0152 µM; in the test on SF-268 CNS, 0.045 µM; in the test on SF-295 CNS, 0.015 µM. Besides, the TGI worked out at 1.43 µM with HOP-92 NSCLC; 0.105 µM in the test on SNB-19 CNS; 0.477 µM in the test with SK-MEL-5 melanoma; 0.148 µM in the test on HCT-116 colon; 1.61 µM in the test with OVCAR-4 ovarian; 1.07 µM with MCF7 breast. The figures for the TGI with HOP-62 NSCLC, in the test with SF-268 CNS and in the test on SF-295 CNS were 0.0942 µM, 1.09 µM and 0.657 µM, respectively.

For `O=C(c1ccc2ccccc2c1O)N1CCCCC1`, the TGI in the test on HOP-92 NSCLC, with SNB-19 CNS, in the test with SK-MEL-5 melanoma, with HCT-116 colon, in the test on HL-60(TB) leukemia and in the test on OVCAR-4 ovarian was above 100 µM each time. Besides, the TGI in the test on MCF7 breast, in the test with HOP-62 NSCLC, in the test on SF-268 CNS and with SF-295 CNS was above 100 µM throughout.

On to `COc1ccc(C#Cc2ccccc2C#CCCCCO)cc1`, for which the GI50 in the test on HOP-92 NSCLC is 23.5 µM; in the test with SNB-19 CNS, 21.4 µM; in the test with SK-MEL-5 melanoma, 25.2 µM; in the test on HCT-116 colon, 22.5 µM; with HL-60(TB) leukemia, 23.7 µM; in the test on OVCAR-4 ovarian it was 11.2 µM. Further, the GI50 in the test with MCF7 breast is 27.2 µM; with HOP-62 NSCLC, 28.6 µM; in the test on SF-268 CNS, 21.7 µM; in the test with SF-295 CNS, 18.7 µM. The TGI came out at 47.7 µM with HOP-92 NSCLC; 36.9 µM with SNB-19 CNS; 57.6 µM with SK-MEL-5 melanoma; 43.7 µM with HCT-116 colon; 44.7 µM with HL-60(TB) leukemia; 28.1 µM with OVCAR-4 ovarian. In addition, the TGI turned out to be 59.1 µM with MCF7 breast, 45.4 µM with HOP-62 NSCLC, 42.9 µM in the test on SF-268 CNS and 34.6 µM with SF-295 CNS.

As to `Cc1nc2sccn2c1/C=C1/C(=O)Nc2ccccc21`, the GI50 is 17.9 µM in the test on HOP-92 NSCLC; above 44 µM with SNB-19 CNS; 3.37 µM in the test with SK-MEL-5 melanoma; 3.4 µM with HCT-116 colon; 2.1 µM in the test with HL-60(TB) leukemia; above 29.6 µM in the test on OVCAR-4 ovarian. Also, the GI50 in the test on MCF7 breast is 1.02 µM; with HOP-62 NSCLC it was 5.13 µM; in the test on SF-268 CNS, 52 µM; with SF-295 CNS it was 3.01 µM. The TGI in the test on HOP-92 NSCLC was above 100 µM; with SNB-19 CNS, above 100 µM; in the test with SK-MEL-5 melanoma it was above 62.9 µM; in the test with HCT-116 colon it was 20.2 µM; in the test on HL-60(TB) leukemia, 7.25 µM; in the test with OVCAR-4 ovarian, above 100 µM. Further, the TGI is above 100 µM with MCF7 breast, above 100 µM in the test with HOP-62 NSCLC, above 100 µM with SF-268 CNS and above 26.5 µM with SF-295 CNS.

For orientation: GI50 means the concentration at which growth is held to half of that of the control. A word on the TGI: it is the concentration at which net growth stops.
